Measurements reported in ChEMBL document CHEMBL5113508, “Targeting Human CD22/Siglec-2 with Dimeric Sialosides as Novel Oligosaccharide Mimetics” (J Med Chem, 2022).

Columns and labels:
B-cell receptor CD22 [1] = molecular target: T1, B-cell receptor CD22 (Homo sapiens, UniProt P20273); test: Inhibition of CD22 in human Daudi cells preincubated for 15 mins followed by biotinylated dimeric 2-(78-biotinoylamino-1,4,7,10,13,16-hexaoxa-octadecyl)-1,4-bis(2-aza-l-oxo-8-(sodium(5-acetamido-3,5,9-trideoxy-9-(4-phenylbenzamido)-D-glycero-a-D-galacto-non-2-ulopyranosyloxyonate))-5-thia-octyl) benzene probe addition incubated for 20 mins by flow cytometric analysis; assay type: cell-based
T1 sequence (P20273 whole entry): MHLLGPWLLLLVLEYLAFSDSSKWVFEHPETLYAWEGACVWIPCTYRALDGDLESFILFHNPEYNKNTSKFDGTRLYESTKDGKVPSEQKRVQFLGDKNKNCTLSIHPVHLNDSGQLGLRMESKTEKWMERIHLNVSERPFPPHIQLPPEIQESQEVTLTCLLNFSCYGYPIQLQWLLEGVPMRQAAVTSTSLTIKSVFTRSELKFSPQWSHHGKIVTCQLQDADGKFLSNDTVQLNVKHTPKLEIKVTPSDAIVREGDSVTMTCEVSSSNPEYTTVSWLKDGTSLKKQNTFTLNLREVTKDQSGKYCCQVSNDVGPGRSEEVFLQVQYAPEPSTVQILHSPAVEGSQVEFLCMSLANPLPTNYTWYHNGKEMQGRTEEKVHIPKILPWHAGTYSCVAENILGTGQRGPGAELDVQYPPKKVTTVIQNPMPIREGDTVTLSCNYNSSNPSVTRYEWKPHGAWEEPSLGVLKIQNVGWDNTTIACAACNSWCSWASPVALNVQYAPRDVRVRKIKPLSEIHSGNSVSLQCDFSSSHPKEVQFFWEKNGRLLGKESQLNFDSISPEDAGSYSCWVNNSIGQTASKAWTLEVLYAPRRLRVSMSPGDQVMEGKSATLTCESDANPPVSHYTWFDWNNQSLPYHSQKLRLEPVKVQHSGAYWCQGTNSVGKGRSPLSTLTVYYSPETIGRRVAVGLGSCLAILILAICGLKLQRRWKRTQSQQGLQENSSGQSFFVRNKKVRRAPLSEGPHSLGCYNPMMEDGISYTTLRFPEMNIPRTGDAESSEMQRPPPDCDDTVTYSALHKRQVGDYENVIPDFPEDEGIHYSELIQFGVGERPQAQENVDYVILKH

[2] = molecular target: B-cell receptor CD22 (Homo sapiens) (UniProt P20273); test: Inhibition of CD22 (unknown origin) in human Daudi cells assessed as relative inhibitory potency in presence of biotinylated dimeric 2-(78-biotinoylamino-1,4,7,10,13,16-hexaoxa-octadecyl)-1,4-bis(2-aza-l-oxo-8-(sodium(5-acetamido-3,5,9-trideoxy-9-(4-phenylbenzamido)-D-glycero-a-D-galacto-non-2-ulopyranosyloxyonate))-5-thia-octyl) benzene preincubated for 15 mins followed by probe addition incubated for 20 mins by flow cytometric analysis relative to 1,4-Bis-(2-aza-1-oxo-8-(sodium-(5-acetamido-3,5-dideoxy-D-glycero-alpha-D-galacto-non-2-ulopyranosyloxyonate))-5-thia-octyl)benzene; assay type: cell-based; details: time 35.0 min
B-cell receptor CD22 [3] = molecular target: T1, B-cell receptor CD22; test: Inhibition hFc tagged CD22 incubated for 4 hrs by ELISA
[4] = molecular target: B-cell receptor CD22 (Homo sapiens) (UniProt P20273); test: Inhibition of hFc tagged CD22 (unknown origin) assessed as relative inhibitory potency incubated for 4 hrs by ELISA relative to 1,4-Bis-(2-aza-1-oxo-8-(sodium-(5-acetamido-3,5-dideoxy-D-glycero-alpha-D-galacto-non-2-ulopyranosyloxyonate))-5-thia-octyl)benzene
[5] = molecular target: B-cell receptor CD22 (Homo sapiens) (UniProt P20273); test: Antagonist activity at CD22 in IgM stimulated human Daudi cells assessed as increase in calcium flux incubated for 10 mins by flow cytometric analysis; assay type: cell-based; details: dose 2-200 µM, DDE = dose-dependent effect

IC50 (B-cell receptor CD22 [1]): 2200 nM | fold change (FC) [2]: 2940 | IC50 (B-cell receptor CD22 [3]): 0.41 nM | fold change (FC) [4]: 100 | Activity [5]: Dde
Structure (SMILES): CC(=O)N[C@H]1[C@H]([C@H](O)[C@H](O)CNC(=O)c2ccc(-c3ccccc3)cc2)O[C@@](OCCCSCCNC(=O)c2ccc(C(=O)NCCSCCCO[C@]3(C(=O)O)C[C@H](O)[C@@H](NC(C)=O)[C@H]([C@H](O)[C@H](O)CNC(=O)c4ccc(-c5ccccc5)cc4)O3)cc2)(C(=O)O)C[C@@H]1O
